The values below come from patent US20240325370A1, “THERAPEUTIC REGIMENS OF A DEGRADER OF BRD9” (FOGHORN THERAPEUTICS INC., priority 2021, published 2024).

The target in series [1] is T1, BRD9 (Homo sapiens, UniProt Q9H8M2).
T1 sequence (Q9H8M2 1-597): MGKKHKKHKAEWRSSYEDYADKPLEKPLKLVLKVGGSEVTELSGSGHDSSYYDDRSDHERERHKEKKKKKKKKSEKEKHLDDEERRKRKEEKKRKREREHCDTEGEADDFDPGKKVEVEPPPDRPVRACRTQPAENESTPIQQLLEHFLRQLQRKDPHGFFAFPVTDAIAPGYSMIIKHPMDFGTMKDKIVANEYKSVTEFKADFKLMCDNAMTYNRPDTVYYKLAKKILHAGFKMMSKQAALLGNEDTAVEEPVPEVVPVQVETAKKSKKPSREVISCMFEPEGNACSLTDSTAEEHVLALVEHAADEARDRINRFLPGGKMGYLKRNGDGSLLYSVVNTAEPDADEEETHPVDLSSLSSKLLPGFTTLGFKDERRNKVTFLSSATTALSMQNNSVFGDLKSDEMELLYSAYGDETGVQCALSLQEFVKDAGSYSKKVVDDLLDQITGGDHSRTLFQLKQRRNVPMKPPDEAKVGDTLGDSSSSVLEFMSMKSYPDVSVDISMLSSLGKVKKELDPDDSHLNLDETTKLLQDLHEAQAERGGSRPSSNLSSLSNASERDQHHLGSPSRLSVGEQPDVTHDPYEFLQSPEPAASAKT
The experiment in a line: BRD9 degradation by western blot in synovial sarcoma cells (SYO-1, ASKA). It counts as cell-based. Particulars: 30 minutes, up to 10 µM. Background: A western blot detects proteins with antibodies after separation by electrophoresis.

Series [2] has as its target T1, BRD9. The experiment in a line: Pharmacodynamic activity in SYO-1 xenograft model (tumor BRD9 western blot). It counts as in vivo, mice. Also noted: from tissue; host or cells: SYO-1 xenograft tumours in BALB/c nude or NOD SCID mice. Particulars: SYO-1 xenograft, BALB/c Nude mice; single dose i.v. (Table 6). How it is done: Method. The SYO-1 tumor cells were maintained in vitro as adherent cells in Dulbecco's Modified Eagle Medium (DMEM) supplemented with 10% fetal bovine serum at 37° C. in an atmosphere of 5% CO2 in air. The cells growing in an exponential growth phase were harvested and counted for tumor inoculation. BALB/c Nude mice (Shanghai Lingchang biological science) were inoculated subcutaneously on the right flank with (5×10^6) in 0.1 mL of phosphate buffered saline (PBS). The treatment-(described in table 6)—was started on day 19 after tumor inoculation, when the average tumor size reached 499 mm^3.
Mice were treated with racemic D1, 1 mg/kg, i.p. for 4 weeks, mice were euthanized, and tumors collected 1, 4, 8, 24, 48 and 72-hour post last dose. Tumors were lysed with 1×RIPA lysis buffer (Boston BioProducts, BP-115D) with protease and phosphatase protein inhibitor (Roche Applied Science #04906837001 & 05892791001). Equal amount of lysate (30 ug) were loaded in 4-12% Bis-Tris Midi Protein Gels in 1×MOPS buffer; samples ran at 120 V for 120 min. Proteins was transferred to membrane (NC) with TransBlot at 250 mA for 150 minute, then membranes were blocked with Odyssey Blocking buffer for 1 hour at room temperature. Membranes were hybridized overnight in cold room with primary antibodies. Images acquired using Li-COR imaging system (Li-COR Biotechnology, Lincoln, Nebraska).
Further study. The other study examined a range of compound D1 dose levels (0.05, 0.25, 1 or 5 mg/kg) formulated in a vehicle of 20% SBECD for tumor BRD9 protein levels up to 144 hours post dose. […] BRD9 protein levels were still depleted by 83.4% and 73.2% at 120 hours (5 days) and 144 hours (6 days), respectively, after a single IV administration of 5 mg/kg of compound D1, which corresponds to ˜2.5 mg/kg of compound S-D1.

A short description of series [3]: Interconversion between Enantiomer 1 and Enantiomer 2 in cell medium. The format is physicochemical. The following applies: Enantiomer 1 dosing, cell medium 37° C.; for Mean peak area ratio of Enantiomer 2 over Enantiomer 1 peak area ratio: 0.2 µM. How it is done: For the assessment of interconversion between Enantiomer 1 and Enantiomer 2 in cell medium, the following test was performed. […] At designated time point, aliquot (50 μL) was taken and processed by the addition of 150 μL of acetonitrile containing 0.1% formic acid and internal standard for LC/MS-MS analysis. Peak areas of both Enantiomer 1 and Enantiomer 2 were determined for each sample using a chiral specific analytical method.

The target in series [4] is T1, BRD9. The experiment in a line: BRD9 degradation by western blot in synovial sarcoma cells (SYO-1, ASKA). The format is cell-based. Particulars: for DC50: read-out: Fitted DC50. The protocol:
Method. Synovial sarcoma cells were plated in 6-well plate at […] cells/well and treated with serial concentrations of BRD9 degrader (10 nM top concentration, diluted 1:3) the next day for two time points at 37° C. Cells were then harvested, washed with cold PBS, and frozen in cell pellets at −80° C. Lysates were prepared by resuspending thawed pellets in 1×RIPA Lysis and Extraction buffer (Thermo Fisher, Cat #89900) with 1× Halt™ Protease and Phosphatase Inhibitor Cocktail, EDTA-free (Thermo Fisher, Cat #78441) and 1:1000 dilution Pierce™ Universal Nuclease for Cell Lysis 25ku (Thermo Fisher, Cat #88700). Lysates were incubated on ice for 10 minutes and then centrifuged in 4° C. at maximum speed (15,000 rpm) for 10 minutes. Samples were then analyzed for total protein using BCA protein quantification assay and diluted to 1 ug/μL with lysis buffer and 1× NuPAGE™ LDS Sample Buffer (4×) (Thermo Fisher, Cat #NP0007) and 1×DTT from 30× stock (Cell Signaling Technologies, Cat #14265S). Samples with 20-25 ug of total protein were loaded into 4-12% Bis-Tris Mini-Gel with 1×MES Running buffer and run at 150V for 45 minutes. Gels were transferred using Trans-Blot® Turbo™ Transfer System (semi-dry) at 25V for 10 minutes (High MW setting) on nitrocellulose blots. Blots were blocked in 5% milk in TBST for 1 hour and probed with BRD9 antibody (Bethyl Labs, Cat #A303-781A, 1:750 for SYO1, and Cell Signaling Technologies, Cat #71232S for ASKA) and beta-Actin antibody (Cell Signaling Technologies, Cat #3700, 1:2000) overnight at 4° C. The next day, blots were washed in TBST 3× and probed with 1:5000 IRDye® 680LT Goat anti-Rabbit IgG Secondary Antibody (LICOR, Cat #926-68021) and 1:10000 IRDye® 800CW Goat anti-Mouse IgG Secondary Antibody (LiCOR, Cat #926-32210) in LiCOR Odyssey® Blocking Buffer (TBS) for 1 hour at room temperature. Blots were washed in TBST 3× and scanned at […] wavelength using LiCOR Odyssey® CLx Imaging System. Western blot signal was quantified using same analyses program included in the same machine. BRD9 signal was quantified by normalizing to beta-actin signal and all samples were normalized to DMSO, set as 100% signal.

Read-outs that look alike come from different tables or passages of the source.

In general, DC50 refers to the midpoint of the concentration-degradation curve. Turning to `COc1cc(-c2cn(C)c(=O)c3cnc(N4CCC4)cc23)cc(OC)c1CN1CCC(CN2CCC3(CC2)CN(c2ccc4c(c2)C(=O)N([C@@H]2CCC(=O)NC2=O)C4)C3)CC1` (single isomer, unassigned) [Enantiomer 1], on BRD9 [1], the BRD9 degradation activity result is recorded as “no discernable activity”. Also, the “Pharmacodynamic activity: tumor BRD9 protein level by western blot” value on BRD9 [2] is “inactive and did not degrade BRD9 protein”. The “Mean peak area ratio of Enantiomer 2 over Enantiomer 1 peak area ratio” value in series [3] (0 h) worked out at 0.0; in series [3] (0.5 h), 0.0; in series [3] (2 h), 0.13; in series [3] (6 h), 0.43. Also, the figures for the “% Enantiomer 2” value in series [3] (2 h) and in series [3] (6 h) were 12% and 30%, respectively. The DC50 was greater than 10 nM at BRD9 [4] (ASKA, 0.5 h); 0.38 nM at BRD9 [4] (ASKA, 2 h); 2.8 nM on BRD9 [4] (SYO-1, 1 h); 0.066 nM at BRD9 [4] (SYO-1, 6 h). In addition, the “potency in degradation of endogenous BRD9 protein” value at BRD9 [4] (two synovial sarcoma cell lines, early time point) was “largely inactive or with much reduced degradation potency”.
